Results as given in ChEMBL document CHEMBL1201862, “PubChem BioAssay data set” (2004).
Where “and” joins values, the source holds several entries; their conditions need not be identical. Equal entries are not always repeated.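 All cell lines were grown in 96-well plates and treated with compound for 48 hours. GI50: concentration for 50% inhibition of growth.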 Calls of active or inactive are those of the source. No stated cut-off is given here; in the data, active = GI50 up to about 1.1 µM and inactive = higher.

Legend:
Assay in all cases: NCI-60 cell line screen, 48 h
EKVX = system: EKVX
NCI/ADR-RES = system: NCI/ADR-RES
CCRF-CEM = system: CCRF-CEM
SN12C = system: SN12C
U-251 = system: U-251
TK-10 = system: TK-10
IGROV-1 = system: IGROV-1
LOX IMVI = system: LOX IMVI
K562 = system: K562
SF-295 = system: SF-295
OVCAR-3 = system: OVCAR-3
T47D = system: T47D
OVCAR-8 = system: OVCAR-8
OVCAR-5 = system: OVCAR-5
UACC-257 = system: UACC-257
HCT-116 = system: HCT-116
SW-620 = system: SW-620
UACC-62 = system: UACC-62
HL-60 = system: HL-60
OVCAR-4 = system: OVCAR-4

Measured: GI50

COc1ccc(C[C@H]2COC(=O)[C@@H]2Cc2ccccc2)cc1OC
inactive: EKVX > 100 µM | NCI/ADR-RES > 100 µM | CCRF-CEM > 100 µM | SN12C > 100 µM | U-251 > 100 µM | TK-10 > 100 µM | IGROV-1 > 100 µM | LOX IMVI > 100 µM | K562 > 100 µM | SF-295 > 100 µM | OVCAR-3 > 100 µM | T47D > 100 µM | OVCAR-8 > 100 µM | OVCAR-5 > 100 µM | UACC-257 > 100 µM | HCT-116 > 100 µM | SW-620 > 100 µM

COC(=O)c1ccc(C(=O)OC)c2nc3cc(Cl)ccc3nc12
inactive: EKVX > 100 µM | CCRF-CEM > 100 µM | SN12C > 100 µM | U-251 > 100 µM | TK-10 > 100 µM | IGROV-1 > 100 µM | LOX IMVI > 100 µM | K562 > 100 µM | UACC-62 > 100 µM | HL-60 > 100 µM | SF-295 > 100 µM | OVCAR-3 > 100 µM | OVCAR-8 > 100 µM | OVCAR-5 > 100 µM | UACC-257 > 100 µM | HCT-116 > 100 µM | OVCAR-4 > 100 µM | SW-620 > 100 µM

C[C@]12CC[C@H]3[C@@H](CC=C4C[C@@H](O)CC[C@@]43C)[C@@H]1C/C(=C\c1cccnc1)[C@@H]2O
inactive: EKVX 3.97 µM | NCI/ADR-RES 11.8 µM | CCRF-CEM 23.6 µM | SN12C 9.44 µM | U-251 6.27 µM | TK-10 19.6 µM | IGROV-1 24.7 µM | LOX IMVI 1.28 µM | UACC-62 7.96 µM | SF-295 2.55 µM | OVCAR-8 6.89 µM | OVCAR-5 41.4 µM | UACC-257 39.2 µM | HCT-116 25 µM | OVCAR-4 4.68 µM | SW-620 89.9 µM

CCc1n[nH]c(=O)n1/N=C/c1ccccc1O
inactive: EKVX > 100 µM | NCI/ADR-RES > 100 µM | CCRF-CEM > 100 µM | SN12C > 100 µM | U-251 > 100 µM | TK-10 > 100 µM | IGROV-1 64.9 µM | LOX IMVI > 100 µM | K562 > 100 µM | UACC-62 > 100 µM | SF-295 > 100 µM | OVCAR-3 > 100 µM | OVCAR-8 > 100 µM | OVCAR-5 > 100 µM | UACC-257 > 100 µM | HCT-116 > 100 µM | OVCAR-4 > 100 µM | SW-620 > 100 µM

Cc1nc(O)nc(CC(O)(c2ccccc2)c2ccccc2)c1-c1ccccc1
inactive: EKVX > 100 µM | CCRF-CEM > 100 µM | SN12C > 100 µM | U-251 > 100 µM | TK-10 > 100 µM | IGROV-1 > 100 µM | LOX IMVI > 100 µM | K562 > 100 µM | UACC-62 > 100 µM | HL-60 > 100 µM | SF-295 > 100 µM | OVCAR-3 > 100 µM | OVCAR-8 > 100 µM | OVCAR-5 > 100 µM | UACC-257 > 100 µM | HCT-116 > 100 µM | OVCAR-4 > 100 µM | SW-620 > 100 µM

Cc1ccc(S(=O)(=O)NC(=O)NCCC(=O)O)cc1
inactive: CCRF-CEM > 100 µM | SN12C > 100 µM | U-251 > 100 µM | TK-10 > 100 µM | IGROV-1 > 100 µM | LOX IMVI > 100 µM | K562 > 100 µM | UACC-62 > 100 µM | HL-60 > 100 µM | SF-295 > 100 µM | T47D > 100 µM | OVCAR-8 > 100 µM | OVCAR-5 > 100 µM | UACC-257 > 100 µM | HCT-116 > 100 µM | OVCAR-4 > 100 µM | SW-620 > 100 µM

COc1cc(-c2c(C(C)=O)c(-c3ccccc3)n(C3OC(COC(C)=O)C(OC(C)=O)C(OC(C)=O)C3OC(C)=O)c(=S)c2C#N)ccc1O (stereo not given)
inactive: EKVX 57.4 µM | NCI/ADR-RES > 100 µM | CCRF-CEM 58.3 µM | SN12C > 100 µM | U-251 > 100 µM | LOX IMVI > 100 µM and 66.5 µM | K562 > 100 µM | UACC-62 59.2 µM | SF-295 > 100 µM | OVCAR-5 > 100 µM | HCT-116 70.8 µM | OVCAR-4 > 100 µM | SW-620 > 100 µM

N=C(NNS(=O)(=O)c1ccccc1)Oc1ccc(Br)cc1Br
inactive: EKVX > 100 µM | CCRF-CEM 71.4 µM | SN12C > 100 µM | U-251 > 100 µM | TK-10 > 100 µM | IGROV-1 > 100 µM | LOX IMVI > 100 µM | K562 90.6 µM | UACC-62 > 100 µM | HL-60 92.7 µM | SF-295 > 100 µM | OVCAR-3 > 100 µM | OVCAR-8 > 100 µM | OVCAR-5 > 100 µM | UACC-257 > 100 µM | HCT-116 > 100 µM | OVCAR-4 > 100 µM | SW-620 11.9 µM
